Data set [1] relates to isolated guinea pig atrium. Briefly: Isolated guinea pig left atria: decrease in force of contraction (negatively inotropic effect). On the set-up: species or system guinea pig (Pirbright white, male). Particulars: for EC25: Cavia porcellus, isolated left atria, pH 7.4, 32° C., read-out: Force of contraction EC 25% (concentration which causes a 25% decrease in the force of contraction); for Q: quotient EC 25% (decrease in force of contraction)/EC 50% (decrease in maximum driving rate): isolated guinea pig atrium; for Force of contraction R.A. (relative activity): reference substance B = 1.00. The method, then:
(§1) The antiarrhythmic activity of the compound according to the invention is determined on isolated left atria of male guinea pigs (Pirbright white, weight 350 to 450 g). Atria suspended in an organ bath (volume 125 ml) containing carbogen (95% O2 /5% CO2)-saturated Tyrode's solution (pH 7.4, 32° C.) are prestressed with 1.0 g and are driven by square wave pulses of 1 Hz base rhythm and double stimulation threshold values (rheo base: 0.2 to 1.4 V, chronaxia: 0.3 to 0.5 msec). As a criterion of the antiarrhythmic activity, the frequency (in Hz) at which the atria are just still able to follow the sequence of pulses (the maximum driving rate) is determined by automatic continuous increase in frequency. The concentration which produces a 50% decrease in maximum driving rate, i.e. the EC 50%, is calculated from the linear relationship between log concentration (mg/1) of the active substance and relative decrease in maximum driving rate (Δ%).
Furthermore, the concentration which produces a 25% decrease in contraction amplitude, i.e. the EC 25%, is determined, as a measure of the negatively inotropic effect, from the linear relationship between log concentration (mg/1) and relative change in contraction amplitude (Δ%).

Data set [2] can be described thus: Toxicity in the rat (oral), dose at which toxic symptoms occur. The data set is classed as in vivo, rat (Sprague Dawley, male). As to conditions: in vivo, read-out: Q: quotient of the acute toxic dose and the antiarrhythmic ED 50%. The method, then: (§2) Moreover, the antiarrhythmic activity of the novel substances is determined on male rats (Sprague Dawley, weight 200 to 230 g), after oral administration. 45 minutes after administration of the substance, the animals are anesthetized with sodium thiobutabarbital (100 mg/kg, administered intraperitoneally). Aconitine is used as the arrhythmogenic substance, and is infused intravenously at a rate of 0.005 mg/kg per min, 60 minutes after administration of the test substance. […] The dose which prolongs the infusion time by 50%, i.e. the ED 50%, is determined from the linear relationship between log dose (mg/kg) of the test substance and the relative prolongation of the aconitine infusion time (%).
(§3) Further, the dose at which toxic symptoms (changes in the initial ECG, cyanosis or cramp) occur is determined. The quotient of the acute toxic dose and the antiarrhythmic ED 50% is therefore determined as a measure of the toleration.

Another data set has as its system rat. The description is as above. The data set is classed as in vivo, rat (Sprague Dawley, male). Particulars: for Toxic dose (dose after whose administration the first toxic symptoms are observed): changes in the initial ECG, cyanosis or cramp. The method, then:
as §2, §3

For data set [3], the system named is aconitine-induced arrhythmia in rats. Briefly: Antiarrhythmic effect on aconitine-induced arrhythmia in the rat (oral). It counts as in vivo, rat (Sprague Dawley, male). Particulars: for ED50: Rattus norvegicus, po, 1 h, read-out: Effective dose EC 50% (dose which prolongs the aconitine infusion time by 50%); for Effective dose R.A. (relative activity): rat, reference substance B = 1.00. The method, then:
as §2

Data set [4] has as its system isolated guinea pig atrium. Briefly: Isolated guinea pig left atria: decrease in maximum driving rate (antiarrhythmic activity). On the set-up: species or system guinea pig (Pirbright white, male). As to conditions: for EC50: Cavia porcellus, isolated left atria, pH 7.4, 32° C., read-out: Maximum driving rate EC 50% (concentration which causes a 50% decrease in the maximum driving rate); for Maximum driving rate R.A. (relative activity): reference substance B = 1.00. The method, then:
as §1

Data set [5] has as its system isolated strips of rat aorta. Nature of the data set: Constrictive effect on isolated strips of rat aorta. As to conditions: for EC50: spiral strips of rat aorta, 37° C. The text has this: The novel compounds are further characterized by investigation whether, in addition to antiarrhythmic properties, stimulating effects on smooth muscle, which may lead to undesirable side effects (hypertension or stimulation of the uterus), are detectable.

The subject of data set [6] is blood pressure of unanesthetized dogs. Nature of the data set: Effect on the blood pressure of unanesthetized dogs (intravenous). The data set is classed as in vivo, dog. The protocol:
Moreover, the effect of the compound according to the invention on the systolic and diastolic blood pressure of unanesthetized dogs on intravenous administration is tested.

The mark [7] stands for this setting: read-out: EC 50, constrictive effect (50% of the contraction obtained with noradrenalin 10^-6 mol/l).

SMILES strings stand for the structures. Converted amounts (≈) assume the structure as drawn. Where two headings read alike, the source gives them in different places.

As for `c1ccc(CN2CC3CC(C2)CN(CC(c2ccccc2)c2ccccc2)C3)cc1` [A, N-benzyl-N'-(2,2-diphenylethyl)-bispidine], in data set [1], the EC25 was determined as 4.92 µg/mL (≈ 12.4 µM), the “Q: quotient EC 25% (decrease in force of contraction)/EC 50% (decrease in maximum driving rate)” value was found to be 3.44 and the “Force of contraction R.A. (relative activity)” value came out at 4.43. Also, in data set [2], the selectivity ratio stood at 7.7. Moreover, in the data set with rat, the “Toxic dose (dose after whose administration the first toxic symptoms are observed)” value (“Toxic dose” for short) was 100 mg/kg. For the same molecule, the ED50 in data set [3] worked out at 13 mg/kg. The “Effective dose R.A. (relative activity)” value in data set [3] (oral) was 1.75. Also, in data set [4], the EC50 came to 1.43 µg/mL (≈ 3.61 µM) and the “Maximum driving rate R.A. (relative activity)” value was found to be 3.93.
Take `c1ccc(CN2CC3CC(C2)CN(Cc2ccccc2)C3)cc1` [B, N,N'-bisbenzylbispidine]: in data set [1], the EC25 is 21.8 µg/mL (≈ 71.1 µM) and the “Q: quotient EC 25% (decrease in force of contraction)/EC 50% (decrease in maximum driving rate)” value was 3.68. Moreover, the EC50 in data set [5] (setting [7]) came to 3.8 µM. Besides, the selectivity ratio in data set [2] stood at 4.4. In addition, in the data set on rat, the “Toxic dose” value was found to be 100 mg/kg. Moreover, in data set [6], the “effect on systolic and diastolic blood pressure (in words)” value was “substantial increase in the systolic and in particular in the diastolic blood pressure”. In addition, in data set [6] (2.0 mg/kg), the “Change in blood pressure, diastolic” value was “+59 Δmm Hg” and the “Change in blood pressure, systolic” value was “+20 Δmm Hg”. The ED50 in data set [3] is 22.7 mg/kg. Besides, the EC50 in data set [4] stood at 5.92 µg/mL (≈ 19.3 µM).
On to `Nc1ccc(C(=O)N2CC3CC(CN(Cc4ccccc4)C3)C2)cc1` [C, N-(4-Aminobenzoyl)-N'-benzylbispidine], for which, in data set [1], the EC25 was 100 µg/mL (≈ 298 µM), the “Q: quotient EC 25% (decrease in force of contraction)/EC 50% (decrease in maximum driving rate)” value was found to be 16.3 and the “Force of contraction R.A. (relative activity)” value was found to be 0.22. Further, the “decrease in the force of contraction (in words)” value in data set [1] (isolated guinea pig atria) is listed as “relatively small decrease in the force of contraction”. Also, the “stimulating effects on smooth muscle (in words)” value in data set [5] (Table 3) is “lack of stimulating effects on smooth muscle”. In addition, the “constrictive effect on the vascular muscle in vitro (in words)” value in data set [5] (even in very high concentrations (3.10^-4 mol/l)) is reported as “no constrictive effect”. The EC50 in data set [5] (no effect up to 3.10^-4 mol/l, read-out: EC 50, constrictive effect (symbol for no effect)) was > 300 µM. In addition, the selectivity ratio in data set [2] was 7.3. In the data set on rat, the “Toxic dose” value was 46.4 mg/kg. In the data set with rat (versus reference substances), the “difference between toxic and antiarrhythmic doses, relative to reference substances” value is “about twice the difference or about the same difference, respectively”. Further, in data set [6], the “effect on systolic and diastolic blood pressure (in words)” value is given as “no hypertensive effect”. Further, in data set [6] (2.0 mg/kg), the “Change in blood pressure, diastolic” value is reported as -2 Δmm Hg and the “Change in blood pressure, systolic” value is -5 Δmm Hg. The ED50 in data set [3] amounted to 6.37 mg/kg. Moreover, the “antiarrhythmic activity relative to reference substance A” value in data set [3] (aconitine-induced arrhythmia in rats, oral, versus A) is reported as “twice”. For the same molecule, the “antiarrhythmic activity relative to reference substance B” value in data set [3] (aconitine-induced arrhythmia in rats, oral, versus B) is recorded as “about 4 times”. The “antiarrhythmic activity relative to sparteine” value in data set [3] (aconitine-induced arrhythmia in rats, oral, versus sparteine) is recorded as ~18 times. For the same molecule, the “Effective dose R.A. (relative activity)” value in data set [3] (oral) was found to be 3.56. In data set [4], the EC50 was 6.14 µg/mL (≈ 18.3 µM) and the “Maximum driving rate R.A. (relative activity)” value is given as 0.96. Further, in data set [4] (decrease in maximum driving rate), the “antiarrhythmic effect on isolated guinea pig atria (in words)” value was “powerful antiarrhythmic effect”.
For the molecule `C1CCN2C[C@@H]3C[C@@H](CN4CCCC[C@@H]34)[C@H]2C1` [Sparteine, sparteine], in data set [5] (setting [7]), the EC50 came out at 550 µM. Moreover, in data set [2], the selectivity ratio was 4.1. Moreover, in the data set on rat, the “Toxic dose” value worked out at 464 mg/kg. In addition, the “effect on systolic and diastolic blood pressure (in words)” value in data set [6] was “substantial increase in the systolic and in particular in the diastolic blood pressure”. In data set [6] (5.0 mg/kg), the “Change in blood pressure, diastolic” value is given as “+40 Δmm Hg” and the “Change in blood pressure, systolic” value is “+19 Δmm Hg”. In data set [3], the ED50 amounted to 112 mg/kg. Moreover, the “Effective dose R.A. (relative activity)” value in data set [3] (oral) is recorded as 4.93.

These data come from US4556662A, “Bispidine derivatives and antiarrhythmic compositions” (BASF Aktiengesellschaft, priority 1981, dated 1985).
